Assays:
[1] = target: isolated recombinant JAK1 kinase domain (Homo sapiens (Human), UniProt P23458); test: JAK1 enzyme assay (Caliper LabChip, peptide phosphorylation); type: biochemical; conditions: isolated recombinant JAK1 kinase domain, 25 μM ATP
[2] = target: isolated recombinant JAK2 kinase domain (Homo sapiens (Human), UniProt O60674); test: JAK2 enzyme assay (Caliper LabChip, peptide phosphorylation); type: biochemical; conditions: 25 μM ATP
[3] = tested on: JAK1-dependent STAT6 phosphorylation downstream of IL-13 stimulation in BEAS-2B human bronchial epithelial cells; test: JAK1 pathway assay in BEAS-2B cells (IL-13-pSTAT6, MSD); type: cell-based; conditions: read-out: IL13-pSTAT6 EC50 (uM)_BEAS-2B
How it was run: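 TF-1 cells are starved of GM-CSF overnight and run in serum-free medium, while BEAS-2B cells stay in complete growth medium. Inhibition of STAT6 phosphorylation is measured by MSD.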

isolated recombinant JAK1 kinase domain, sequence (P23458 875-1153): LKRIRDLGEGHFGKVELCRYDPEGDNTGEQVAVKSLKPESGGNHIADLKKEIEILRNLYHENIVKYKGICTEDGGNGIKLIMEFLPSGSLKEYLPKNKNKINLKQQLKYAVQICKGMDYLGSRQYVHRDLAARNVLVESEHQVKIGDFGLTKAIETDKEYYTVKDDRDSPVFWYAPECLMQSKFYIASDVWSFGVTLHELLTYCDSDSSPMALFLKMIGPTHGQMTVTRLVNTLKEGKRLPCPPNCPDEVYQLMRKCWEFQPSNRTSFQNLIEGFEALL
isolated recombinant JAK2 kinase domain, sequence (O60674 849-1124): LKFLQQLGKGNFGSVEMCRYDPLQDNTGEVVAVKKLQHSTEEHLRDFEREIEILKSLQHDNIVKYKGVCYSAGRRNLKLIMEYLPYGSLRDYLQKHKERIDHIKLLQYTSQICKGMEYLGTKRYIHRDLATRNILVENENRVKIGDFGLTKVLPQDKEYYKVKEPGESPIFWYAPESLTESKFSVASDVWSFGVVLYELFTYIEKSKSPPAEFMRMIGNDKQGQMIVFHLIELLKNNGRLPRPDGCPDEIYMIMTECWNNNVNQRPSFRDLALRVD

Structure (SMILES) | Ki [1] | Ki [2] | EC50 [3]
O=C(Nc1cn(CC(=O)N2CCNCC2)nc1-c1cc(Cl)ccc1OC(F)F)c1cnn2cccnc12 [Example 324, N-[3-[5-chloro-2-(difluoromethoxy)phenyl]-1-[2-oxo-2-(piperazin-1-yl)ethyl]-1H-pyrazol-4-yl]pyrazolo[1,5-a]pyrimidine-3-carboxamide] | 0.95 nM | 1.61 nM | 0.0566 µM
O=C(Nc1cn(CC(=O)N2CCN(C3CCOCC3)CC2)nc1-c1cc(Cl)ccc1OC(F)F)c1cnn2cccnc12 [Example 429, N-(3-(5-chloro-2-(difluoromethoxy)phenyl)-1-(2-oxo-2-(4-(tetrahydro-2H-pyran-4-yl)piperazin-1-yl)ethyl)-1H-pyrazol-4-yl)pyrazolo[1,5-a]pyrimidine-3-carboxamide] | 0.48 nM | 0.99 nM | 0.0074 µM
O=C(Nc1cn(CC(=O)N2CCC(N3CCSCC3)CC2)nc1-c1cc(Cl)ccc1OC(F)F)c1cnn2cccnc12 [Example 434, N-(3-(5-chloro-2-(difluoromethoxy)phenyl)-1-(2-oxo-2-(4-thiomorpholinopiperidin-1-yl)ethyl)-1H-pyrazol-4-yl)pyrazolo[1,5-a]pyrimidine-3-carboxamide] | 0.31 nM | 0.67 nM | 0.0187 µM
CN(C)CC(=O)Cn1cc(NC(=O)c2cnn3cccnc23)c(-c2cc(Cl)ccc2OC(F)F)n1 [Example 411, N-(3-(5-chloro-2-(difluoromethoxy)phenyl)-1-(3-(dimethylamino)-2-oxopropyl)-1H-pyrazol-4-yl)pyrazolo[1,5-a]pyrimidine-3-carboxamide] | 1.7 nM | 0.43 nM | 0.0228 µM
N#CC1CN(C2CCN(C(=O)Cn3cc(NC(=O)c4cnn5cccnc45)c(-c4cc(Cl)ccc4OC(F)F)n3)CC2)C1 [Example 446, N-(3-(5-chloro-2-(difluoromethoxy)phenyl)-1-(2-(4-(3-cyanoazetidin-1-yl)piperidin-1-yl)-2-oxoethyl)-1H-pyrazol-4-yl)pyrazolo[1,5-a]pyrimidine-3-carboxamide] | 0.45 nM | 1.3 nM | 0.0121 µM
COC(=O)CN1CCN(C(=O)Cn2cc(NC(=O)c3cnn4cccnc34)c(-c3cc(Cl)ccc3OC(F)F)n2)CC1 [Example 322, methyl 2-[4-(2-[3-[5-chloro-2-(difluoromethoxy)phenyl]-4-[pyrazolo[1,5-a]pyrimidine-3-amido]-1H-pyrazol-1-yl]acetyl)piperazin-1-yl]acetate] | 0.31 nM | 0.8 nM | 0.0411 µM
CC(C)N1CCN(C(=O)Cn2cc(NC(=O)c3cnn4cccnc34)c(-c3cc(Cl)ccc3OC(F)F)n2)CC1 [Example 373, N-[3-[5-chloro-2-(difluoromethoxy)phenyl]-1-[2-oxo-2-[4-(propan-2-yl)piperazin-1-yl]ethyl]-1H-pyrazol-4-yl]pyrazolo[1,5-a]pyrimidine-3-carboxamide] | 0.7 nM | 1.24 nM | 0.0342 µM
CN(C)C(=O)[C@@H]1CCCN1CC1CCN(C(=O)Cn2cc(NC(=O)c3cnn4cccnc34)c(-c3cc(Cl)ccc3OC(F)F)n2)CC1 [Example 423, N-(3-(5-chloro-2-(difluoromethoxy)phenyl)-1-(2-(4-(((S)-2-(dimethylcarbamoyl)pyrrolidin-1-yl)methyl)piperidin-1-yl)-2-oxoethyl)-1H-pyrazol-4-yl)pyrazolo[1,5-a]pyrimidine-3-carboxamide] | 0.73 nM | 2.79 nM | 0.0312 µM
CN[C@@H](C)Cn1cc(NC(=O)c2cnn3cccnc23)c(-c2cc(Cl)ccc2OC(F)F)n1 [Example 369, N-[3-[5-chloro-2-(difluoromethoxy)phenyl]-1-[(2S)-2-(methylamino)propyl]-1H-pyrazol-4-yl]pyrazolo[1,5-a]pyrimidine-3-carboxamide] | 1.13 nM | 1.25 nM | 0.0093 µM
